The values below come from US10077464B2, “Micro-organism detection medium comprising at least one alkyl(thio)glycoside” (Biomérieux, priority 2012, dated 2018).

For test [1], the system named is P. aeruginosa and A. baumannii. The experiment in a line: Detection of P. aeruginosa and A. baumannii, all strains of Example 2. The test is classed as cell-based. The procedure: Two stock solutions at 25 g/L of ALDOL™ 470-nonanoate (ALDOL 470-C9, developed by Biosynth AG, Rietlisstrasse 4,9422 Staad, Switzerland) and of ALDOL™ 495-nonanoate (ALDOL 495-C9, also developed by Biosynth AG, Rietlisstrasse 4,9422 Staad, Switzerland) are made in a DMSO-type organic solvent. Then a volume corresponding to a final concentration of enzyme substrates of 200 mg/L is added into flasks containing respectively: Tween 20 (final concentration in the medium of 6 g/L), and DM (final concentrations of 0.7, 2 and 6 g/L). The different flasks are vigorously agitated, then all of the contents are added into the supercooled agar media: TSA (trypticase soy agar) base.
Bacteria from the Applicant's collection were seeded on each of the aforementioned media in accordance with the three-dial technique from bacterial suspensions calibrated to 0.5 McF. The dishes were incubated for 24 h at 37° C. and the colonies formed were analysed visually. Thus, the colorations and the coloration intensities were recorded.

Test [2] relates to Microorganisms of the genus Salmonella. Description: Detection of salmonellae, all strains of Example 1. Format: cell-based. Conditions: alkylglycoside in place of Tween 20, Example 1. The procedure:
A stock solution of the enzyme substrate 5-bromo-6-chloro-3-indoxyl caprylate (magenta-C8) is made in a DMSO-type solvent. A volume of this stock solution which makes it possible to obtain a final substrate concentration of 360 mg/L is then added into flasks respectively containing Tween 20 (final concentration 6 g/L), n-octyl-β-D-glucopyranoside (OG) to final concentrations of 0.7, 2 and 6 g/L, and n-dodecyl-β-D-maltoside (DM) to the same concentrations. The different solutions are agitated and the volumes are introduced into supercooled agar media (chromID® Salmonella media).
Microorganisms of the genus Salmonella from the Applicant's collection were seeded on each of the aforementioned media in accordance with the three-dial technique from bacterial suspensions calibrated to 0.5 McF. The strains were selected for their low to average expression of esterase activity, giving low to average violet coloration intensities on the chromID® Salmonella medium marketed by bioMérieux (under the references 43621 and 43629).
The dishes were incubated for 24 h at 37° C. Then the colonies which formed were examined visually after 24 h of incubation. The coloration intensities were recorded.

As for `CCCCCCCCCCCCO[C@@H]1O[C@H](CO)[C@@H](O[C@H]2O[C@H](CO)[C@@H](O)[C@H](O)[C@H]2O)[C@H](O)[C@H]1O` [DM, n-dodecyl-β-D-maltoside], the “Detection of the strains tested” value in test [1] (replacement of the Tween 20 at 6 g/L by DM at the same concentration, whatever the enzyme substrate) is on record as “detect all of the strains tested”. Also, the “Detection of the esterase activity of the microorganisms” value in test [1] (substitution of Tween 20 by DM, Example 2) is “improves the detection of the esterase activity of the microorganisms”. Besides, the “Esterase activity detection sensitivity in Salmonella” value in test [2] is on record as “improve the esterase activity detection sensitivity in Salmonella”.

For `CCCCCCCCO[C@@H]1O[C@H](CO)[C@@H](O)[C@H](O)[C@H]1O` [OG, n-octyl-β-D-glucopyranoside], the “Esterase activity detection sensitivity in Salmonella” value in test [2] is listed as “improve the esterase activity detection sensitivity in Salmonella”.
